Measurements from patent publication US9247759B2, “Identification of human T2R receptors that respond to bitter compounds that elicit the bitter taste in compositions, and the use thereof in assays to identify compounds that inhibit (block) bitter taste in compositions and use thereof” (SENOMYX, INC., priority 2007, dated 2016).
Where two headings read alike, the source gives them in different places.

What was measured:
[1] = tested on: hT2R63; assay: hT2R panel inhibition, transient HEK293 G16g44, agonist Caffeine 1 mM or Andrographolide 100 μM; assay type: cell-based, human; details: compound at 25 μM; for screening result against bitter receptor 63: receptor activated to EC80 with the corresponding agonist
In short: (§1)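 Each human T2R transiently transfected into HEK293 cells stably expressing G16g44; functional receptor assays run with the listed bitter agonist at EC80 concentration. Inhibition recorded as reduction of agonist-induced receptor activity in presence of Compound C.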

[2] = target: hT2R71 (Homo sapiens (Human), UniProt P59536); assay: hT2R panel inhibition, transient HEK293 G16g44, agonist Picric Acid 10 μM; assay type: cell-based; details: HEK293, compound at 25 μM
Chain of hT2R71 (P59536 whole entry): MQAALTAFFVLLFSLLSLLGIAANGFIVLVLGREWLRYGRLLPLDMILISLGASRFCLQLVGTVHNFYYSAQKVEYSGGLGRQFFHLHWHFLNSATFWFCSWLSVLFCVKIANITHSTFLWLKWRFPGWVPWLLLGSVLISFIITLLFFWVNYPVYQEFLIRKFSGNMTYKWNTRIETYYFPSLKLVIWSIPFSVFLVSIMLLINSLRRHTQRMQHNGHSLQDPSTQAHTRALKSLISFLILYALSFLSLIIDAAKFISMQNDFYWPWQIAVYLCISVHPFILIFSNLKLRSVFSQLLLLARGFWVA
In short: as §1

[3] = target: T1, hT2R14 (Homo sapiens (Human), UniProt Q9NYV8); assay: hT2R panel inhibition, transient HEK293 G16g44, agonist Aristolochic Acid 2 μM; assay type: cell-based; details: HEK293, compound at 25 μM
T1 sequence (Q9NYV8 whole entry): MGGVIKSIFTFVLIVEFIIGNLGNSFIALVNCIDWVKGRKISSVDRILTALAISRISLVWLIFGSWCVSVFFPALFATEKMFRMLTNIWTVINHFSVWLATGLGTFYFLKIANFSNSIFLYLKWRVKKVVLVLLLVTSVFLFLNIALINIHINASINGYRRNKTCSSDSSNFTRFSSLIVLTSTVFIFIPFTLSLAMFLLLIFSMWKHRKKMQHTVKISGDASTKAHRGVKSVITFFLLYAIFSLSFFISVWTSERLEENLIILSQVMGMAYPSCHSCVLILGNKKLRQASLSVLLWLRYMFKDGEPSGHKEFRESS
In short: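 Each hT2R was transiently transfected into HEK293 cells stably expressing G16g44 and assayed functionally for inhibition of agonist response. Agonists were applied at EC80: andrographolide at 0.5 mM for hT2R8 and aristolochic acid at 2 μM for hT2R14.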

[4] = target: hT2R3 (Homo sapiens (Human), UniProt Q9NYW6); assay: hT2R panel inhibition, transient HEK293 G16g44, agonist Chloroquine pH6.5 50 μM; assay type: cell-based; details: HEK293, compound at 25 μM
Chain of hT2R3 (Q9NYW6 whole entry): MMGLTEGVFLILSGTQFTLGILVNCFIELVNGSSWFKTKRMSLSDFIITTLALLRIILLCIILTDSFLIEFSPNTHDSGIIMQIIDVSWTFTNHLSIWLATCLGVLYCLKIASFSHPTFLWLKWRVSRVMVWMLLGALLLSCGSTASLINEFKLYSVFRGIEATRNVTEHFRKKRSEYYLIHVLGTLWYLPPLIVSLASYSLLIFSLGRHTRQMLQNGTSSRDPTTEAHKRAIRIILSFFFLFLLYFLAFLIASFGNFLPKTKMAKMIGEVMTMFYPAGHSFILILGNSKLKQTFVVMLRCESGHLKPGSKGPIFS
In short: as §1

[5] = tested on: hT2R44; assay: hT2R panel inhibition, transient HEK293 G16g44, agonist Denatonium 0.5 μM; assay type: cell-based, human; details: compound at 25 μM; for screening result against bitter receptor 44: receptor activated to EC80 with the corresponding agonist; for inhibition of bitter receptor 44: receptor activated to EC80 with agonist
In short: as §1

[6] = target: hT2R64 (Homo sapiens (Human), UniProt P59538); assay: hT2R panel inhibition, transient HEK293 G16g44, agonist Aristolochic Acid 1 μM; assay type: cell-based; details: HEK293, compound at 25 μM
Chain of hT2R64 (P59538 whole entry): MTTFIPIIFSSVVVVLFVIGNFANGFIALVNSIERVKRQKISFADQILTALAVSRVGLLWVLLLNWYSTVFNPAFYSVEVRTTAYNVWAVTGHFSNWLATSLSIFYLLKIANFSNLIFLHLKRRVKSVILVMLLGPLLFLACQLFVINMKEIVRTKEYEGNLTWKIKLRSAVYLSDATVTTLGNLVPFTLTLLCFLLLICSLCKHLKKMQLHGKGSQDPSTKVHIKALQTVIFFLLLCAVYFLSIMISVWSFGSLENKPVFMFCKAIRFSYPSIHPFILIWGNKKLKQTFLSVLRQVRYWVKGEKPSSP
In short: as §1

[7] = target: hT2R5 (Homo sapiens (Human), UniProt Q9NYW4); assay: hT2R panel inhibition, transient HEK293 G16g44, agonist Picoline 10 mM; assay type: cell-based; details: HEK293, compound at 25 μM
Chain of hT2R5 (Q9NYW4 whole entry): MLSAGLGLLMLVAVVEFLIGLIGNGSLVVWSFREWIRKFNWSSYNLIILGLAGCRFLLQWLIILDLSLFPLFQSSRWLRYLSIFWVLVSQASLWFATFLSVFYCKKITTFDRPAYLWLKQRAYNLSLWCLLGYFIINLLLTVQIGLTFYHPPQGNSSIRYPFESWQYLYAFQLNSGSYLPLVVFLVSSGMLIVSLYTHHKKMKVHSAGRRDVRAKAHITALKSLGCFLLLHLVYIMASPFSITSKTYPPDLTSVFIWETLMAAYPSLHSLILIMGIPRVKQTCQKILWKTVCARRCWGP
In short: as §1

[8] = target: T1, hT2R14; assay: hT2R14 antagonist high-throughput FLIPR assay, stable cell line with G16g44, agonist aristolochic acid; assay type: cell-based
In short: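 HEK293 cells stably expressing hT2R14 with chimeric G16g44 were stimulated with aristolochic acid (3 μM), giving 70-80% of maximal receptor activity. Test compounds were added together with the agonist, and antagonism was read as fluorescent calcium signal on FLIPR.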

[9] = target: hT2R13 (Homo sapiens (Human), UniProt Q9NYV9); assay: hT2R panel inhibition, transient HEK293 G16g44, agonist Oxyphenonium 1 mM; assay type: cell-based; details: HEK293, compound at 25 μM
Chain of hT2R13 (Q9NYV9 whole entry): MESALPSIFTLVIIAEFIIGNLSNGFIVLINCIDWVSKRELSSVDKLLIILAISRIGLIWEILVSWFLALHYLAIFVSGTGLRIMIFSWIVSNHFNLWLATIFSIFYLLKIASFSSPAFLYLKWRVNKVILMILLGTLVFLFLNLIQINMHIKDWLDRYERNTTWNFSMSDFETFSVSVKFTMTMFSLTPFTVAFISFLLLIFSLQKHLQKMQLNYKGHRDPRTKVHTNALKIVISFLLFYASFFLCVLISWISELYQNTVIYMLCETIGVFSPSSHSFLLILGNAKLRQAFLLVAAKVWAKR
Description: (§2) Specifically, in order to evaluate the inhibitory selectivity of the Compound C compound, this compound was tested against 22 human T2Rs which were deorphaned by Senomyx. These receptors and the bitter ligands that activate these human T2Rs are reported in earlier patent applications which are incorporated by reference herein. These 22 human T2Rs are hT2R1, 3, 4, 5, 7, 8, 9, 10, 13, 14, 16, 44, 51, 54, 55, 61, 63, 64, 65, 67, 71 and 75. The amino acid and nucleic acid sequences of all of these T2Rs may be found in these earlier patent applications. These human T2Rs were each individually transiently transfected into HEK293 cells that stably express the promiscuous G protein G16g44 and functional assays were effected using these receptors as disclosed in these same patent applications. […] The ligands were used at EC80 concentration levels. The list of bitter ligands utilized and the tested ligand concentrations are contained in Table 5 of this example.
(§3) Relating to the foregoing, FIG. 5 contains experimental results wherein Compound C was tested with different agonist compounds. The inhibition activity is represented by the reduction of receptor activity in the presence of Compound C. […] These 13 hT2Rs are hT2R3, 7, 10, 14, 16, 44, 51, 55, 61, 63, 64, 65, and 71.

[10] = target: hT2R16 (Homo sapiens (Human), UniProt Q9NYV7); assay: hT2R panel inhibition, transient HEK293 G16g44, agonist Salicin 1 mM; assay type: cell-based; details: HEK293, compound at 25 μM; receptor activated to EC80 with the corresponding agonist; read-out: screening result against bitter receptor 16
Chain of hT2R16 (Q9NYV7 whole entry): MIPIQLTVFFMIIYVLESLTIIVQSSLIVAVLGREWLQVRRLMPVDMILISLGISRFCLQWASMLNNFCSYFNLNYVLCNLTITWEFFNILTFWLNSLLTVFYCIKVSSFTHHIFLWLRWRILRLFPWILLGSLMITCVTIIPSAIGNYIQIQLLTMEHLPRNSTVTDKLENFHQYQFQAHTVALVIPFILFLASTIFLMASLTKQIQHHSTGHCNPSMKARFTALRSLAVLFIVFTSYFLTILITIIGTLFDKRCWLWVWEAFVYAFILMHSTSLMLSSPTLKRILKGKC
In short: as §1

[11] = tested on: hT2R55; assay: hT2R panel inhibition, transient HEK293 G16g44, agonist Cinchonine 150 μM; assay type: cell-based, human; details: compound at 25 μM; receptor activated to EC80 with the corresponding agonist
In short: as §1

[12] = tested on: hT2R54; assay: hT2R panel inhibition, transient HEK293 G16g44, agonist Ranitidine 5 mM; assay type: cell-based, human; details: compound at 25 μM; receptor activated to EC80 with the corresponding agonist
In short: as §1

[13] = target: hT2R10 (Homo sapiens (Human), UniProt Q9NYW0); assay: hT2R panel inhibition, transient HEK293 G16g44, agonist Strychnine 50 μM; assay type: cell-based; details: HEK293, read-out: screening result against bitter receptor 10, compound at 25 μM; receptor activated to EC80 with the corresponding agonist
Chain of hT2R10 (Q9NYW0 whole entry): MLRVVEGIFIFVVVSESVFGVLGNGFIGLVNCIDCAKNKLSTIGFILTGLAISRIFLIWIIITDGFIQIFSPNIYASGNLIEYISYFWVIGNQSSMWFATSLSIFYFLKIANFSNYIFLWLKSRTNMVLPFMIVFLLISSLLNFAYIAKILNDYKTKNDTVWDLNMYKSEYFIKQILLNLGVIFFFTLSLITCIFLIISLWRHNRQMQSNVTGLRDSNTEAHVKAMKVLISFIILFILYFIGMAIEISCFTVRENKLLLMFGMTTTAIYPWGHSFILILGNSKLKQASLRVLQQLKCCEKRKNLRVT

[14] = target: hT2R61 (Homo sapiens (Human), UniProt P59537); assay: hT2R panel inhibition, transient HEK293 G16g44, agonist Aristolochic Acid 25 nM; assay type: cell-based; details: HEK293, compound at 25 μM
Chain of hT2R61 (P59537 whole entry): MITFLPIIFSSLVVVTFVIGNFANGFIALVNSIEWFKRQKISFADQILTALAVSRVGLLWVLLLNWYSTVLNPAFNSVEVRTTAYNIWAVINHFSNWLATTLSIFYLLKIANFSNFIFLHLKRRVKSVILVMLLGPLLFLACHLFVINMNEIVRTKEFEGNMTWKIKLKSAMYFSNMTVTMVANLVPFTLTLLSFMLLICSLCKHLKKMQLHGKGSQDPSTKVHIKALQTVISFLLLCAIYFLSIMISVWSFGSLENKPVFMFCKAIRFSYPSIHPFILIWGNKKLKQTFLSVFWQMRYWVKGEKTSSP
In short: as §1

[15] = target: hT2R51 (Homo sapiens (Human), UniProt P59533); assay: hT2R panel inhibition, transient HEK293 G16g44, agonist Prop 2.5 μM; assay type: cell-based; details: HEK293, compound at 25 μM; receptor activated to EC80 with the corresponding agonist; read-out: screening result against bitter receptor 51
Chain of hT2R51 (P59533 whole entry): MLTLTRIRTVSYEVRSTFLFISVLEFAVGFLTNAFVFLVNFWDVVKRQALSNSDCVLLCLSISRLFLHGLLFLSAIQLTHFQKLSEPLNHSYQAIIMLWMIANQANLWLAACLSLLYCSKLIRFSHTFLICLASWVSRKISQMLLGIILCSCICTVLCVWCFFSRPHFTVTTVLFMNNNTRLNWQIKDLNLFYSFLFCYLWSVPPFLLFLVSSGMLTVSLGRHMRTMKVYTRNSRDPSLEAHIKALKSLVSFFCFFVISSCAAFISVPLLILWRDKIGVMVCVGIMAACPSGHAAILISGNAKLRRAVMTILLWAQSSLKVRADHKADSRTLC
In short: as §1

[16] = target: hT2R4 (Homo sapiens (Human), UniProt Q9NYW5); assay: hT2R panel inhibition, transient HEK293 G16g44, agonist Chloroquine pH6.5 5 mM; assay type: cell-based; details: HEK293, compound at 25 μM; receptor activated to EC80 with the corresponding agonist; class symbols; read-out: screening result against bitter receptor 4
Chain of hT2R4 (Q9NYW5 whole entry): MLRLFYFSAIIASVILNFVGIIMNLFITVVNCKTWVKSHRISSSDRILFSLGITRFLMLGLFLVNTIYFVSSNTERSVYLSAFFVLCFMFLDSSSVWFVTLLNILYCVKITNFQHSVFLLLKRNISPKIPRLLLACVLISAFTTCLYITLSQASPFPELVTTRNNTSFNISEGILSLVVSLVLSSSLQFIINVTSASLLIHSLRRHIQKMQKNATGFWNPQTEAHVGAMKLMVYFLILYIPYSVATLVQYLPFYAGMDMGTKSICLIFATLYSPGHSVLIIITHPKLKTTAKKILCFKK
In short: as §1

[17] = target: hT2R7 (Homo sapiens (Human), UniProt Q9NYW3); assay: hT2R panel inhibition, transient HEK293 G16g44, agonist Chloroquine pH6.5 10 mM; assay type: cell-based; details: HEK293, compound at 25 μM
Chain of hT2R7 (Q9NYW3 whole entry): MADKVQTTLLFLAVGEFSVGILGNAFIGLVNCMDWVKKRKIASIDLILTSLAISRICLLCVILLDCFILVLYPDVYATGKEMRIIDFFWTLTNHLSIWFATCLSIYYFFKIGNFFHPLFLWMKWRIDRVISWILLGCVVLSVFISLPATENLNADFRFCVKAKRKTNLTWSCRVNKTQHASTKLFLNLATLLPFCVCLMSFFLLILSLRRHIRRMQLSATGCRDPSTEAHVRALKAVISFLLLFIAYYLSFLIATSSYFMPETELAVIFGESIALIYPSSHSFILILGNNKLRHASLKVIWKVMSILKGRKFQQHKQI
In short: as §1

[18] = tested on: hT2R67; assay: hT2R panel inhibition, transient HEK293 G16g44, agonist Andrographolide 5 μM; assay type: cell-based, human; details: compound at 25 μM; receptor activated to EC80 with the corresponding agonist
In short: as §1

[19] = tested on: hT2R65; assay: hT2R panel inhibition, transient HEK293 G16g44, agonist Oleuropein 1 mM; assay type: cell-based, human; details: compound at 25 μM; receptor activated to EC80 with the corresponding agonist
In short: as §1

[20] = target: hT2R9 (Homo sapiens (Human), UniProt Q9NYW1); assay: hT2R panel inhibition, transient HEK293 G16g44, agonist Ofloxacin 1 mM; assay type: cell-based; details: HEK293, compound at 25 μM; receptor activated to EC80 with the corresponding agonist; read-out: screening result against bitter receptor 9
Chain of hT2R9 (Q9NYW1 whole entry): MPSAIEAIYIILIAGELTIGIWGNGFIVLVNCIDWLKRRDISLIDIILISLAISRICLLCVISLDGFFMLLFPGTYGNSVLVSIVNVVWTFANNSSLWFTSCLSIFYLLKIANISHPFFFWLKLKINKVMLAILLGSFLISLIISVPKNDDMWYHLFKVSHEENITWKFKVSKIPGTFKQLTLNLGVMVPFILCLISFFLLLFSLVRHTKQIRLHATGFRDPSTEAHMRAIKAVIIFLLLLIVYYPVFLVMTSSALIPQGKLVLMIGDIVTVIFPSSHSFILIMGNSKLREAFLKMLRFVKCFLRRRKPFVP
Description: as §2, §3

[21] = target: hT2R75 (Homo sapiens (Human), UniProt P59540); assay: hT2R panel inhibition, transient HEK293 G16g44, agonist Strychnine 1 μM; assay type: cell-based; details: HEK293, read-out: screening result against bitter receptor 75, compound at 25 μM; receptor activated to EC80 with the corresponding agonist
Chain of hT2R75 (P59540 whole entry): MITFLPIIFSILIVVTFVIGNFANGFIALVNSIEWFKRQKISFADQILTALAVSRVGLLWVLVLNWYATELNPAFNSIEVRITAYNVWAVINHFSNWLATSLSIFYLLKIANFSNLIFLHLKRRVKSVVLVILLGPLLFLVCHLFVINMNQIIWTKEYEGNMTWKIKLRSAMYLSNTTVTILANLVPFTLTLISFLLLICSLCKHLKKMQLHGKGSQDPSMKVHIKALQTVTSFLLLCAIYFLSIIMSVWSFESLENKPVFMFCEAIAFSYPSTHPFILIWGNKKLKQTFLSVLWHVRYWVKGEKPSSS

[22] = receptor activated to EC80 with the corresponding agonist, read-out: screening result against bitter receptor 71
[23] = receptor activated to EC80 with the corresponding agonist, read-out: screening result against bitter receptor 14
[24] = receptor activated to EC80 with the corresponding agonist, read-out: screening result against bitter receptor 3
[25] = receptor activated to EC80 with the corresponding agonist, read-out: screening result against bitter receptor 64
[26] = receptor activated to EC80 with the corresponding agonist, read-out: screening result against bitter receptor 5
[27] = read-out: IC50 on hT2R14 bitter receptor
[28] = receptor activated to EC80 with the corresponding agonist, read-out: screening result against bitter receptor 61
[29] = receptor activated to EC80 with agonist, read-out: inhibition of bitter receptor 71
[30] = receptor activated to EC80 with agonist, read-out: inhibition of bitter receptor 14
[31] = receptor activated to EC80 with agonist, read-out: inhibition of bitter receptor 13
[32] = receptor activated to EC80 with agonist, read-out: inhibition of bitter receptor 7
[33] = receptor activated to EC80 with agonist, read-out: inhibition of bitter receptor 5
[34] = receptor activated to EC80 with agonist, read-out: inhibition of bitter receptor 61

SMILES: COc1ccc(CN(Cc2ccc(OC)c(F)c2)S(=O)(=O)c2ccc(C(=O)O)cc2)cc1 [Example 5-41, 4-(N-(3-fluoro-4-methoxybenzyl)-N-(4-methoxybenzyl)sulfamoyl)-benzoic acid]
- screening result against bitter receptor 63 [1]: ++++ (80% or greater inhibition = ++++)
- inhibition at 25 µM [2, 22]: 40 to 60%
- inhibition at 25 µM [3, 23]: > 80%
- inhibition at 25 µM [4, 24]: 40 to 60%
- screening result against bitter receptor 44 [5]: +++ (60% to 80% inhibition = +++)
- inhibition at 25 µM [6, 25]: 60 to 80%
- inhibition at 25 µM [7, 26]: 20 to 40%
- IC50 [8, 27]: 1.11 µM
- inhibition at 25 µM ([9]; receptor activated to EC80 with the corresponding agonist, read-out: screening result against bitter receptor 13): 20 to 40%
- inhibition at 25 µM [10]: 20 to 40%
- screening result against bitter receptor 55 [11]: +++ (60% to 80% inhibition = +++)
- screening result against bitter receptor 54 [12]: + (20% to 40% inhibition = +)
- inhibition at 25 µM [13]: 40 to 60%
- inhibition at 25 µM [14, 28]: > 80%

SMILES: O=C(O)c1ccc(CN(Cc2cccc(F)c2)S(=O)(=O)c2ccccc2)cc1 [Example 5-104, 4-((N-(3-fluorobenzyl)phenylsulfonamido)methyl)-benzoic acid]
- screening result against bitter receptor 63 [1]: ++ (40% to 60% inhibition = ++)
- inhibition at 25 µM [15]: 20 to 40%
- inhibition at 25 µM [2, 22]: 60 to 80%
- inhibition at 25 µM [3, 23]: > 80%
- inhibition at 25 µM [16]: 40 to 60%
- inhibition at 25 µM [4, 24]: 40 to 60%
- screening result against bitter receptor 44 [5]: +++ (60% to 80% inhibition = +++)
- inhibition at 25 µM [6, 25]: > 80%
- inhibition at 25 µM ([17]; receptor activated to EC80 with the corresponding agonist, read-out: screening result against bitter receptor 7): 40 to 60%
- screening result against bitter receptor 67 [18]: ++ (40% to 60% inhibition = ++)
- inhibition at 25 µM [7, 26]: 40 to 60%
- screening result against bitter receptor 65 [19]: +++ (60% to 80% inhibition = +++)
- IC50 ([8]; Table C, read-out: hT2R14 IC50): 0.406 µM
- inhibition at 25 µM [10]: 20 to 40%
- screening result against bitter receptor 55 [11]: +++ (60% to 80% inhibition = +++)
- inhibition at 25 µM [20]: 20 to 40%
- screening result against bitter receptor 54 [12]: + (20% to 40% inhibition = +)
- inhibition at 25 µM [13]: 40 to 60%
- inhibition at 25 µM [14, 28]: > 80%
- inhibition at 25 µM [21]: 40 to 60%

SMILES: Cn1c(=O)c(=O)n(C)c2cc(S(=O)(=O)Nc3ccc4c(c3)OCCO4)ccc21 [Example 6-3, N-(2,3-dihydrobenzo[b][1,4]dioxin-6-yl)-1,4-dimethyl-2,3-dioxo-1,2,3,4-tetrahydroquinoxaline-6-sulfonamide]
- inhibition of bitter receptor 63 ([1]; receptor activated to EC80 with agonist): + (20% to 40% inhibition = +)
- inhibition at 25 µM [2, 29]: 20 to 40%
- inhibition at 25 µM [3, 30]: > 80%
- inhibition of bitter receptor 44 [5]: + (20% to 40% inhibition = +)
- IC50 [8, 27]: 7.71 µM
- inhibition at 25 µM [9, 31]: 20 to 40%

SMILES: Cc1cc2c(cc1S(=O)(=O)Nc1ccc(F)cc1)n(C)c(=O)c(=O)n2C [Example 6-10, N-(4-fluorophenyl)-1,4,7-trimethyl-2,3-dioxo-1,2,3,4-tetrahydroquinoxaline-6-sulfonamide]
- inhibition at 25 µM [3, 30]: 40 to 60%
- inhibition at 25 µM ([4]; receptor activated to EC80 with agonist, read-out: inhibition of bitter receptor 3): 20 to 40%
- inhibition of bitter receptor 44 [5]: + (20% to 40% inhibition = +)
- inhibition at 25 µM ([6]; receptor activated to EC80 with agonist, read-out: inhibition of bitter receptor 64): 20 to 40%
- inhibition at 25 µM [17, 32]: 20 to 40%
- inhibition at 25 µM [7, 33]: 20 to 40%
- IC50 ([8]; Table D, read-out: hT2R14 IC50): 12.6 µM
- inhibition at 25 µM [9, 31]: 40 to 60%
- inhibition at 25 µM [14, 34]: 20 to 40%

SMILES: CCN(C(=O)CN(C)S(=O)(=O)c1ccc2c(c1)n(C)c(=O)c(=O)n2C)c1cccc(C)c1 [Example 6-11, N-ethyl-N-m-tolyl-2-(N,1,4-trimethyl-2,3-dioxo-1,2,3,4-tetrahydroquinoxaline-6-sulfonamido)acetamide]
- inhibition at 25 µM [2, 29]: 20 to 40%
- inhibition at 25 µM [3, 30]: 20 to 40%
- inhibition at 25 µM [17, 32]: 20 to 40%
- inhibition at 25 µM [7, 33]: 20 to 40%
- IC50 ([8]; Table D, read-out: hT2R14 IC50): 14.9 µM
- inhibition at 25 µM [9, 31]: 40 to 60%
- inhibition at 25 µM [14, 34]: 20 to 40%
